Source: US9718799B2, “3-aryl-4H-chromene-4-ones as antineoplastic agents for the treatment of cancer” (The University of Kentucky Research Foundation, priority 2015, dated 2017)

What was measured:
[1] = test system: PC3 prostate cancer cells; test: Cell proliferation assay in prostate cancer PC3 cells; type: cell-based; conditions: for inhibition at 10 µM: Homo sapiens, PC-3
Protocol: Cell Proliferation Assay:
PC3 prostate cancer cells were cultured in DMEM/F-12 HAM Mixture (Sigma D8437), 10% Fetal Bovine Serum (Atlanta Biological S11150). Before the treatment, 3.5×10^4 cells per well were split into 12-well plates. After 24 h, 10 μM of each compound was added to each well. DMSO was used as a control. This experiment was done in triplicate. Cell viability and number were analyzed using Vi-Cell XR Cell Viability Analyzer (Beckman Coulter).

| Compound | melting point | Inhibition at 10 μM (%) ([1]; Table 3, Diels-Alder adducts, inhibition of proliferation, PC3 cells, 10 μM) | inhibition at 10 µM [1] [%] |
| --- | --- | --- | --- |
| 3-(4-Methoxyphenyl)-2,11-methyl-6a,7,8,9a-tetrahydro-4H,6H-furo[2,3-b]pyrano[3,2-g]chromen-4-one [Isoflavonoid 25g] | – | 61 ± 2 | – |
| COc1ccccc1-c1coc2cc(OC)c(COC(C)=O)c(OC(C)=O)c2c1=O [Isoflavonoid 6a, 5-Acetoxy-6-(acetoxymethyl)-7-methoxy-3-(2-methoxyphenyl)-4H-chromen-4-one] | – | – | 17.1 ± 5.9 |
| COc1ccc(-c2coc3cc(OC)c(COC(C)=O)c(OC(C)=O)c3c2=O)cc1 [Isoflavonoid 6b, 5-Acetoxy-6-(acetoxymethyl)-7-methoxy-3-(4-methoxyphenyl)-4H-chromen-4-one] | – | – | 51.7 ± 5.7 |
| COc1ccc(-c2coc3c(C)c(OC(C)=O)c(COC(C)=O)cc3c2=O)cc1 [Isoflavonoid 6c, [7-(Acetyloxy)-3-(4-methoxyphenyl)-8-methyl-4-oxo-4H-chromen-6-yl]methyl acetate] | 136 to 138 °C | – | – |
| COc1ccc(-c2coc3c(COC(C)=O)c(OC)cc(OC(C)=O)c3c2=O)cc1 [Isoflavonoid 7b, 5-Acetoxy-8-(acetoxymethyl)-7-methoxy-3-(4-methoxyphenyl)-4H-chromen-4-one] | – | – | 20.2 ± 2 |
| COc1ccccc1-c1coc2c(COC(C)=O)c(OC(C)=O)ccc2c1=O [Isoflavonoid 7c, 7-(Acetoxy)-8-(acetoxymethyl)-3-(2-methoxyphenyl)-4H-chromen-4-one] | – | – | 20.6 ± 3.8 |
| COc1ccc(-c2c(C)oc3c(COC(C)=O)c(OC(C)=O)ccc3c2=O)cc1 [Isoflavonoid 7e, 7-(Acetoxy)-8-(acetoxymethyl)-3-(4-methoxyphenyl)-2-methyl-4H-chromen-4-one] | 142 to 144 °C | – | 98.2 ± 1.5 |
| COc1ccccc1-c1coc2cc(OC)c(CO)c(O)c2c1=O [Isoflavonoid 8a, 5-Hydroxy-6-(hydroxymethyl)-7-methoxy-3-(2-methoxyphenyl)-4H-chromen-4-one] | 100 to 101 °C | – | 14.6 ± 3.2 |
| COc1ccc(-c2coc3cc(OC)c(CO)c(O)c3c2=O)cc1 [Isoflavonoid 8b, 5-Hydroxy-6-(hydroxymethyl)-7-methoxy-3-(4-methoxyphenyl)-4H-chromen-4-one] | 138 to 139 °C | – | 0 |
| COc1ccc(-c2coc3c(C)c(O)c(CO)cc3c2=O)cc1 [Isoflavonoid 8c, 7-Hydroxy-6-(hydroxymethyl)-3-(4-methoxyphenyl)-8-methyl-4H-chromen-4-one] | 153 to 155 °C | – | – |
| COc1ccc(-c2coc3c(CO)c(OC)cc(O)c3c2=O)cc1 [Isoflavonoid 9b, 5-Hydroxy-8-(hydroxymethyl)-7-methoxy-3-(4-methoxyphenyl)-4H-chromen-4-one] | 139 to 141 °C | – | 79.5 ± 3.6 |
| COc1ccccc1-c1coc2c(CO)c(O)ccc2c1=O [Isoflavonoid 9c, 7-Hydroxy-8-(hydroxymethyl)-3-(2-methoxyphenyl)-4H-chromen-4-one] | 163 to 165 °C | – | 0 |
| COc1ccc(-c2coc3c(CO)c(O)ccc3c2=O)cc1 [Isoflavonoid 9d, 7-Hydroxy-8-(hydroxymethyl)-3-(4-methoxyphenyl)-4H-chromen-4-one] | 150 to 152 °C (dec.) | – | 99.5 ± 0.2 |
| COc1ccc(-c2c(C)oc3c(CO)c(O)ccc3c2=O)cc1 [Isoflavonoid 9e, 7-Hydroxy-8-(hydroxymethyl)-3-(4-methoxyphenyl)-2-methyl-4H-chromen-4-one] | 212 to 214 °C (dec.) | – | 99.5 ± 0.5 |
| COCc1c(OC)cc2occ(-c3ccccc3OC)c(=O)c2c1O [Isoflavonoid 10a, 5-Hydroxy-7-methoxy-6-(methoxymethyl)-3-(2-methoxyphenyl)-4H-chromen-4-one] | 123 to 124 °C | – | 53.4 ± 8 |
| COCc1c(OC)cc2occ(-c3ccc(OC)cc3)c(=O)c2c1O [Isoflavonoid 10b, 5-Hydroxy-7-methoxy-6-(methoxymethyl)-3-(4-methoxyphenyl)-4H-chromen-4-one] | 180 to 181 °C | – | 0 |
| COCc1cc2c(=O)c(-c3ccc(OC)cc3)coc2c(C)c1O [Isoflavonoid 10c, 7-Hydroxy-6-(methoxymethyl)-3-(4-methoxyphenyl)-8-methyl-4H-chromen-4-one] | 143 to 145 °C | – | – |

The next lines start with results.

| melting point | Compound | Inhibition at 10 μM (%) ([1]; Table 3, Diels-Alder adducts, inhibition of proliferation, PC3 cells, 10 μM) | inhibition at 10 µM [1] [%] |
| --- | --- | --- | --- |
| 154 to 155 °C | COCc1c(OC)cc(O)c2c(=O)c(-c3ccccc3OC)coc12 [Isoflavonoid 11a, 5-Hydroxy-7-methoxy-8-(methoxymethyl)-3-(2-methoxyphenyl)-4H-chromen-4-one] | – | 0 |
| 215 to 217 °C (dec.) | COCc1c(O)ccc2c(=O)c(-c3ccc(OC)cc3)c(C)oc12 [Isoflavonoid 11e, 7-Hydroxy-8-(methoxymethyl)-3-(4-methoxyphenyl)-2-methyl-4H-chromen-4-one] | – | – |
| 193 to 195 °C | COc1ccc(-c2coc3c4c(ccc3c2=O)OC2OCCC2C4)cc1OC (stereo not shown) [Isoflavonoid 20b, 3-(3,4-Dimethoxyphenyl)-9,10,10a,11-tetrahydro-4H,7aH-furo[2,3-b]pyrano[2,3-f]chromen-4-one] | – | – |
| 188 to 189 °C | O=c1c(-c2ccc3c(c2)OCCO3)coc2c3c(ccc12)OC1OCCC1C3 (stereo not shown) [Isoflavonoid 20d, 3-(2,3-Dihydro-1,4-benzodioxin-6-yl)-9,10,10a,11-tetrahydro-4H,7aH-furo[2,3-b]pyrano[2,3-f]chromen-4-one] | – | – |
| 181 to 182 °C | Cc1oc2c3c(ccc2c(=O)c1-c1ccccc1)OC1OCCC1C3 (stereo not shown) [Isoflavonoid 20f, 2-Methyl-3-phenyl-9,10,10a,11-tetrahydro-4H,7aH-furo[2,3-b]pyrano[2,3-f]chromen-4-one] | – | – |
| 227 to 229 °C | COc1ccc(-c2c(C)oc3c4c(ccc3c2=O)OC2OCCC2C4)cc1 (stereo not shown) [Isoflavonoid 20g, 3-(4-Methoxyphenyl)-2-methyl-9,10,10a,11-tetrahydro-4H,7aH-furo[2,3-b]pyrano[2,3-f]chromen-4-one] | – | – |
| 217 to 219 °C | COc1ccc(-c2c(C)oc3c4c(ccc3c2=O)OC2OCCC2C4)cc1OC (stereo not shown) [Isoflavonoid 20h, 3-(3,4-Dimethoxyphenyl)-2-methyl-9,10,10a,11-tetrahydro-4H,7aH-furo[2,3-b]pyrano[2,3-f]chromen-4-one] | – | – |
| 266 to 268 °C | Cc1oc2c3c(ccc2c(=O)c1-c1ccc(Cl)cc1)OC1OCCC1C3 (stereo not shown) [Isoflavonoid 20i, 3-(4-Chlorophenyl)-2-methyl-9,10,10a,11-tetrahydro-4H,7aH-furo[2,3-b]pyrano[2,3-f]chromen-4-one] | – | – |
| 165 to 167 °C | Cc1oc2c3c(ccc2c(=O)c1-c1ccccc1)OC1OCCCC1C3 (stereo not shown) [Isoflavonoid 21f, 2-Methyl-3-phenyl-10,11,11a,12-tetrahydro-4H,7aH,9H-dipyrano[2,3-b:2′,3′-f]chromen-4-one] | – | – |
| 223 to 225 °C | COc1ccc(-c2coc3c4c(ccc3c2=O)OC2=C(C4)C(=O)CC(C)(C)C2)cc1 [Isoflavonoid 22a, 3-(4-Methoxyphenyl)-9,9-dimethyl-8,9,10,12-tetrahydro-4H,11H-pyrano[2,3-a]xanthene-4,11-dione] | – | – |
| 258 to 260 °C | CC1(C)CC(=O)C2=C(C1)Oc1ccc3c(=O)c(-c4ccc5c(c4)OCO5)coc3c1C2 [Isoflavonoid 22c, 3-(1,3-Benzodioxol-5-yl)-9,9-dimethyl-8,9,10,12-tetrahydro-4H,11H-pyrano[2,3-a]xanthene-4,11-dione] | – | – |
| 265 to 266 °C | Cc1oc2c3c(ccc2c(=O)c1-c1ccccc1)OC1=C(C3)C(=O)CC(C)(C)C1 [Isoflavonoid 22f, 2,9,9-trimethyl-3-phenyl-8,9,10,12-tetrahydro-4H,11H-pyrano[2,3-a]xanthene-4,11-dione] | – | – |
| 236 to 237 °C | COc1ccc(-c2c(C)oc3c4c(ccc3c2=O)OC2=C(C4)C(=O)CC(C)(C)C2)cc1 [Isoflavonoid 22g, 3-(4-Methoxyphenyl)-2,9,9-trimethyl-8,9,10,12-tetrahydro 4H,11H-pyrano[2,3-a]xanthene-4,11-dione] | – | – |
| 210 to 211 °C | COc1ccc(-c2c(C)oc3c(CC4CCCC4=O)c(O)ccc3c2=O)cc1 (stereo not shown) [Isoflavonoid 23g, 7-Hydroxy-3-(4-methoxyphenyl)-2-methyl-8-[(2-oxocyclopentyl)methyl]-4H-chromen-4-one] | – | – |
| 88 to 90 °C | COc1ccc(-c2c(C)oc3c(CC4CCCC4=O)c(O)ccc3c2=O)cc1OC (stereo not shown) [Isoflavonoid 23h, 3-(3,4-Dimethoxyphenyl)-7-hydroxy-2-methyl-8-[(2-oxocyclopentyl)methyl]-4H-chromen-4-one] | – | – |
| 197 °C | O=c1c(-c2ccc3c(c2)OCO3)coc2c3c(ccc12)OC1(O)CCCCC1C3 (stereo not shown) [Isoflavonoid 24c, 3-(1,3-Benzodioxol-5-yl)-7a-hydroxy-8,9,10,11,11a,12-hexahydro-4H,7aH-pyrano[2,3-a]xanthen-4-one] | – | – |
| 193 to 194 °C | COc1ccc(-c2c(C)oc3c4c(ccc3c2=O)OC2(O)CCCCC2C4)cc1OC (stereo not shown) [Isoflavonoid 24h, 3-(3,4-Dimethoxyphenyl)-7a-hydroxy-2-methyl-8,9,10,11,11a,12-hexahydro-4H,7aH-pyrano[2,3-a]xanthen-4-one] | – | – |
| 230 to 232 °C | COc1ccc(-c2coc3c(C)c4c(cc3c2=O)CC2=C(CC(C)(C)CC2=O)O4)cc1 [Isoflavonoid 26a, 3-(4-Methoxyphenyl)-9,9,12-trimethyl-6,8,9,10-tetrahydro-4H,7H-pyrano[3,2-b]xanthene-4,7-dione] | – | – |
| 270 to 272 °C | COc1ccc(-c2c(C)oc3c(C)c4c(cc3c2=O)CC2=C(CC(C)(C)CC2=O)O4)cc1 [Isoflavonoid 26g, 3-(4-Methoxyphenyl)-2,9,9,12-tetramethyl-6,8,9,10-tetrahydro-4H,7H-pyrano[3,2-b]xanthene-4,7-dione] | – | – |
